Experimental data from ChEMBL document CHEMBL2176937, “Small-molecule structure correctors target abnormal protein structure and function: structure corrector rescue of apolipoprotein E4-associated neuropathology” (J Med Chem, 2012).

Legend:
[1] = Inhibition of apoE4 expressed in Neuro2a cells assessed as increase in COX1 level by Western blot assay; assay type: cell-based; conditions: N2a
[2] = Inhibition of apoE4 expressed in rat PC12 cells assessed as reversal of mitochondrial impairment; assay type: cell-based; conditions: pc-12

IC50 [1]	EC50 [2]	SMILES
41 nM	–	Cn1nc(CC(=O)Nc2ccc(CN3CCN(C(=O)OC(C)(C)C)CC3)cc2)c2ccccc2c1=O
–	< 1 nM	Cn1nc(CC(=O)Nc2cccc(-c3ccc(C#N)cc3)c2)c2ccccc2c1=O
